Laboratory results from patent US20070112043A1, “Acylated and non-acylated imidazo[2,1-b]-1,3,4,-thiadiazole-2-sulfonamides, and uses thereof” (priority 2003, published 2007).

Test: physchem
Details: water
Procedure: (§1) Alternatively, the sodium salt can be prepared in situ by dissolving the free acid in phosphate buffered saline (PBS) that has been buffered to a pH of 7.4. The solubility and stability of these solutions can be improved by the use of an aqueous soluble co-solvent such as, but not limited to HPCD. This solubility can be further improved by the addition of surfactants such as PEG 400. In general, the free acid is suspended in 10 wt/vol % HPDC (10 g dissolved in 100 mL water) and treated with 0.5M PBS (pH 7.4) such that the volumes are in a ratio of 75:25.

Row | SMILES | solubility [µg/mL]
1 | NS(=O)(=O)c1nn2cc(-c3cc(C(F)(F)F)cc(C(F)(F)F)c3)nc2s1 [Compound 86] | < 500
2 | NS(=O)(=O)c1nn2cc(-c3cc4ccccc4o3)nc2s1 [Compound 129] | < 500
3 | NS(=O)(=O)c1nn2cc(-c3ccc(F)c(F)c3)nc2s1 [Compound 55] | < 500
4 | NS(=O)(=O)c1nn2cc(-c3ccc(OC(F)(F)F)cc3)nc2s1 [Compound 67] | < 500
5 | NS(=O)(=O)c1nn2cc(-c3cccc(OC(F)(F)F)c3)nc2s1 [Compound 66] | < 500
6 | CC1(C)CCC(C)(C)c2cc(-c3cn4nc(S(N)(=O)=O)sc4n3)ccc21 [Compound 88] | < 500
7 | CNS(=O)(=O)c1nn2cc(-c3ccccc3)nc2s1 [Compound 140] | < 500
8 | NS(=O)(=O)c1nn2cc(C34CC5CC(CC(C5)C3)C4)nc2s1 [Compound 92] | < 500
9 | NS(=O)(=O)c1nn2cc(-c3ccc(Br)cc3)nc2s1 [Compound 60] | < 500
10 | NS(=O)(=O)c1nn2cc(-c3ccc(N4CCCCC4)cc3)nc2s1 [Compound 96] | < 500
11 | NS(=O)(=O)c1nn2cc(-c3ccc(-c4ccc(C(F)(F)F)cc4)cc3)nc2s1 [Compound 105] | < 500
12 | NS(=O)(=O)c1nn2cc(-c3cccc(F)c3)nc2s1 [Compound 53] | < 500
13 | COc1ccc(-c2cccc(-c3cn4nc(S(N)(=O)=O)sc4n3)c2)cc1 [Compound 109] | < 500
14 | NS(=O)(=O)c1nn2cc(-c3ccc(Oc4ccccc4)cc3)nc2s1 [Compound 110] | < 500
15 | CC(=O)OCCOc1ccc(-c2cn3nc(S(N)(=O)=O)sc3n2)cc1 [Compound 69] | < 500
16 | CC(=O)N[C@H](C)c1ccc(-c2cn3nc(S(N)(=O)=O)sc3n2)cc1 [Compound 90] | < 500
17 | NS(=O)(=O)c1nn2cc(-c3ccc(Oc4ccc([N+](=O)[O-])cc4)cc3)nc2s1 [Compound 120] | < 500
18 | NS(=O)(=O)c1nn2cc(-c3ccc(Oc4ccc(F)c(F)c4)cc3)nc2s1 [Compound 112] | < 500
19 | NS(=O)(=O)c1nn2cc(-c3ccc(Oc4ccccc4Br)cc3)nc2s1 [Compound 114] | < 500
20 | NS(=O)(=O)c1nn2cc(-c3ccc(OCCOCc4ccccc4)cc3)nc2s1 [Compound 72] | < 500
21 | NS(=O)(=O)c1nn2cc(-c3ccc(Cl)cc3)nc2s1 [Compound 56] | < 500

Row | SMILES | solubility [µg/mL]
22 | NS(=O)(=O)c1nn2cc(-c3ccccn3)nc2s1 [Compound 123] | < 500
23 | NS(=O)(=O)c1nn2cc(-c3ccc4ccccc4c3)nc2s1 [Compound 94] | < 500
24 | Cc1ccc(-c2cn3nc(S(N)(=O)=O)sc3n2)cc1Cl [Compound 122] | < 500
25 | COc1ccc(-c2cn3nc(S(N)(=O)=O)sc3n2)c(OC)c1 [Compound 64] | < 500
26 | NS(=O)(=O)c1nn2cc(-c3ccc(-c4ccc5c(c4)OCO5)cc3)nc2s1 [Compound 103] | < 500
27 | NS(=O)(=O)c1nn2cc(-c3cccc4ccccc34)nc2s1 [Compound 93] | < 500
28 | Cc1ccc(C23CC4CC(CC2C4)C3)cc1-c1cn2nc(S(N)(=O)=O)sc2n1 [Compound 83] | < 500
29 | NS(=O)(=O)c1nn2cc(-c3cc(C(F)(F)F)ccc3Cl)nc2s1 [Compound 85] | < 500
30 | COc1ccc(OC)c(-c2cn3nc(S(N)(=O)=O)sc3n2)c1 [Compound 63] | < 500
31 | NS(=O)(=O)c1nn2cc(-c3nccs3)nc2s1 [Compound 138] | < 500
32 | CC(C)(C)c1ccc(-c2cn3nc(S(N)(=O)=O)sc3n2)cc1 [Compound 81] | < 500
33 | Cc1onc(-c2ccccc2)c1-c1cn2nc(S(N)(=O)=O)sc2n1 [Compound 136] | < 500
34 | CC(C)c1ccc(Oc2ccc(-c3cn4nc(S(N)(=O)=O)sc4n3)cc2)cc1 [Compound 118] | < 500
35 | NS(=O)(=O)c1nn2cc(-c3ccc(-c4ccccc4)cc3)nc2s1 [Compound 98] | < 500
36 | NS(=O)(=O)c1nn2cc(C(F)(F)F)nc2s1 [Compound 91] | < 500
37 | NS(=O)(=O)c1nn2cc(-c3ccc(F)cc3)nc2s1 [Compound 54] | < 500
38 | NS(=O)(=O)c1nn2cc(-c3ccc(Oc4ccc(Cl)c(Cl)c4)cc3)nc2s1 [Compound 113] | < 500
39 | COc1ccc(-c2ccc(-c3cn4nc(S(N)(=O)=O)sc4n3)cc2)cc1 [Compound 101] | < 500
40 | CN(C)c1cccc(Oc2ccc(-c3cn4nc(S(N)(=O)=O)sc4n3)cc2)c1 [Compound 117] | < 500
41 | NS(=O)(=O)c1nn2cc(-c3ccc(Cl)c(Cl)c3)nc2s1 [Compound 57] | < 500
42 | NS(=O)(=O)c1nn2cc(-c3cccs3)nc2s1 [Compound 130] | < 500

Row | SMILES | solubility [µg/mL]
43 | Cc1c(-c2cn3nc(S(N)(=O)=O)sc3n2)sc2ccccc12 [Compound 133] | < 500
44 | NS(=O)(=O)c1nn2cc(-c3ccc(-c4c(F)c(F)c(F)c(F)c4F)cc3)nc2s1 [Compound 99] | < 500
45 | NS(=O)(=O)c1nn2cc(-c3ccc(OCCCOCc4ccccc4)cc3)nc2s1 [Compound 73] | < 500
46 | NS(=O)(=O)c1nn2cc(-c3ccc(-c4ccccc4)s3)nc2s1 [Compound 131] | < 500
47 | CC(C)(C)c1cc(-c2cn3nc(S(N)(=O)=O)sc3n2)c2c(c1)C(C)(C)CC2 [Compound 82] | < 500
48 | COC(=O)c1ccc(-c2cn3nc(S(N)(=O)=O)sc3n2)cc1 [Compound 76] | < 500
49 | Cc1ccc(-c2cn3nc(S(N)(=O)=O)sc3n2)c(C)c1 [Compound 80] | < 500
50 | NS(=O)(=O)c1nn2cc(-c3ccc(OCCC(F)(F)F)cc3)nc2s1 [Compound 70] | < 500
51 | NS(=O)(=O)c1nn2cc(-c3ccccc3F)nc2s1 [Compound 52] | < 500
52 | NS(=O)(=O)c1nn2cc(-c3ccc(-c4ccsc4)cc3)nc2s1 [Compound 108] | < 500
53 | NS(=O)(=O)c1nn2cc(-c3ccc(Oc4cccc(Br)c4)cc3)nc2s1 [Compound 115] | < 500
54 | NS(=O)(=O)c1nn2cc(-c3ccc(Cl)c(Cl)c3Cl)nc2s1 [Compound 58] | < 500
55 | NS(=O)(=O)c1nn2cc(-c3ccc(OCCO)cc3)nc2s1 [Compound 68] | < 500
56 | NS(=O)(=O)c1nn2cc(-c3cc(-c4ccccc4)no3)nc2s1 [Compound 135] | < 500
57 | COCCOCCOc1ccc(-c2cn3nc(S(N)(=O)=O)sc3n2)cc1 [Compound 71] | < 500
58 | NS(=O)(=O)c1nn2cc(-c3cccc(Br)c3)nc2s1 [Compound 59] | < 500
59 | NS(=O)(=O)c1nn2cc(-c3ccc(-c4cc(C(F)(F)F)cc(C(F)(F)F)c4)cc3)nc2s1 [Compound 106] | < 500
60 | NS(=O)(=O)c1nn2cc(-c3ccc4c(c3)NC(=O)CO4)nc2s1 [Compound 128] | < 500
61 | COc1ccc(-c2cn3nc(S(N)(=O)=O)sc3n2)cc1 [Compound 62] | < 500
62 | NS(=O)(=O)c1nn2cc(-c3ccc(Cl)c([N+](=O)[O-])c3)nc2s1 [Compound 75] | < 500
63 | Cc1ccc(-c2cn3nc(S(N)(=O)=O)sc3n2)cc1 [Compound 79] | < 500

Row | SMILES | solubility [µg/mL]
64 | NS(=O)(=O)c1nn2cc(-c3ccc(C(F)(F)F)cc3)nc2s1 [Compound 84] | < 500
65 | NS(=O)(=O)c1nn2cc(-c3cc4ccccc4oc3=O)nc2s1 [Compound 127] | < 500
66 | NS(=O)(=O)c1nn2cc(-c3ccc(Oc4ccc(F)cc4)cc3)nc2s1 [Compound 111] | < 500
67 | Cc1nc(C)c(-c2cn3nc(S(N)(=O)=O)sc3n2)s1 [Compound 139] | < 500
68 | N#Cc1cccc(-c2cn3nc(S(N)(=O)=O)sc3n2)c1 [Compound 77] | < 500
69 | NS(=O)(=O)c1nn2cc(-c3cnccn3)nc2s1 [Compound 126] | < 500
70 | Br.NS(=O)(=O)c1nn2cc(-c3ccc([N+](=O)[O-])s3)nc2s1 [Compound 132] | < 500
71 | NS(=O)(=O)c1nn2cc(-c3ccc(-c4ccccc4C(F)(F)F)cc3)nc2s1 [Compound 104] | < 500
72 | NS(=O)(=O)c1nn2cc(-c3cccc([N+](=O)[O-])c3)nc2s1 [Compound 74] | < 500
73 | COc1cccc(-c2cn3nc(S(N)(=O)=O)sc3n2)c1 [Compound 61] | < 500
74 | COc1ccc(Oc2ccc(-c3cn4nc(S(N)(=O)=O)sc4n3)cc2)cc1 [Compound 119] | < 500
75 | Cc1c(-c2cn3nc(S(N)(=O)=O)sc3n2)cnn1-c1ccccc1 [Compound 137] | < 500
76 | N#Cc1ccc(-c2cn3nc(S(N)(=O)=O)sc3n2)cc1 [Compound 78] | < 500
77 | NS(=O)(=O)c1nn2cc(-c3ccc(-c4cccs4)cc3)nc2s1 [Compound 107] | < 500
78 | CC(C)(C)c1cc(-c2cn3nc(S(N)(=O)=O)sc3n2)cc(C(C)(C)C)c1 [Compound 87] | < 500
79 | NS(=O)(=O)c1nn2cc(-c3ccc4c(c3)OCO4)nc2s1 [Compound 65] | < 500
80 | COc1ccccc1-c1ccc(-c2cn3nc(S(N)(=O)=O)sc3n2)cc1 [Compound 100] | < 500
81 | NS(=O)(=O)c1nn2cc(-c3ccc(-c4cccc(OC(F)(F)F)c4)cc3)nc2s1 [Compound 102] | < 500

Test: Solubility in water and formulations
Details: TFA salts, not neutralized
Procedure: as §1

Row | SMILES | solubility in water or in 10% HPCD
82 | O=C(NS(=O)(=O)c1nn2cc(-c3ccccc3)nc2s1)C1CCCN1 (centres unmarked) [Compound 26] | not soluble
83 | CSCCC(N)C(=O)NS(=O)(=O)c1nn2cc(-c3ccccc3)nc2s1 (centres unmarked) [Compound 24] | not soluble
